1 compound from paper PMC5622171 (Nature Communications, 2017) can be followed below.

Structures are written as SMILES.

The test system of one data set is MDR1 in LS180 cells. Nature of the data set: MDR1 protein levels (western blot). The note with it: 10 μM SPA70, 1.6 μM RIF, 72 h. The class given is cell-based, human. The procedure:
(§1) Cells were rinsed once with cold PBS then lysed in RIPA lysis buffer (Thermo Fisher Scientific) containing protease inhibitor (Roche). Mouse liver samples were homogenized in 500 μl of cold RIPA lysis buffer in a Bullet Blender Blue homogenizer (Next Advance, Averill Park, NY). Then, 25 μg of total protein lysates were loaded onto NuPAGE 4%–12% Bis-Tris gels (Invitrogen) with NuPAGE MES SDS running buffer (Invitrogen). The proteins were transferred from the gel to a nitrocellulose membrane by using the iBlot gel-transfer system (Invitrogen). The membrane was then blocked for 1 h with Odyssey Blocking Buffer (LI-COR Biosciences, Lincoln, NE) and probed with mouse monoclonal antibodies against CYP3A4 (K03; stock concentration: 2.5 mg ml^−1, diluted 1:5000)[51], MDR1 (D-11; Cat. No. sc-55510, Santa Cruz Biotechnology, Santa Cruz, CA; stock concentration: 0.2 mg ml^−1, diluted 1:1500), hPXR (H-11; Cat. No. sc-48340, Santa Cruz Biotechnology; stock concentration: 0.2 mg ml^−1, diluted 1:400), mouse Cyp3a (Cat. No. MAB10041, Millipore, Temecula, CA; Lot No. 1957980, diluted 1:1000), or β-actin (Cat. No. A5441, Sigma; Lot No. 043M4840V, diluted 1:5000). […] The relative intensity of each protein band was then determined by normalizing the intensity of each protein band to that of actin. […]
(In western blotting, separated proteins are transferred to a membrane and probed.)

A further data set has as its system MDR1 in LS174T cells. The experiment in a line: MDR1 protein levels (western blot). Particulars: 10 μM SPA70, 1.6 μM RIF, 72 h. Type of data set: cell-based, human. The procedure: as §1
Another data set addresses T1, hPXR (Homo sapiens, UniProt O75469).
T1 sequence (O75469 1-434): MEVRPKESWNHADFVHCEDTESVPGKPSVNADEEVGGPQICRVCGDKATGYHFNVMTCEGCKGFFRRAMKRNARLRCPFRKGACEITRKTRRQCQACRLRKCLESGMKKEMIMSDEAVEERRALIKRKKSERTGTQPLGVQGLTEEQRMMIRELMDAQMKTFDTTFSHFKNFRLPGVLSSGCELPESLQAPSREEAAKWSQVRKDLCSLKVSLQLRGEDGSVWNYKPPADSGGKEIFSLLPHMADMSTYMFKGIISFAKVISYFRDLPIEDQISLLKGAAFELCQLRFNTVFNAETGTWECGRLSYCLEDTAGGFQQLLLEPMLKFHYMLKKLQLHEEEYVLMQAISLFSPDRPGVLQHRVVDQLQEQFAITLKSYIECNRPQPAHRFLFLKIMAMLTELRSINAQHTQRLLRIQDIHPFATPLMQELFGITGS
The experiment in a line: hPXR transactivation assay, HepG2 stable cell line, antagonistic mode. Particulars: SPA70 concentration of 10 μM; all rifampicin concentrations tested.

Another data set has as its target T2, hPXR–NCoR (Homo sapiens, UniProt O75469).
T2 construct: 5 nM GST-hPXR-LBD; purchased Thermo Fisher Scientific
Type of data set: biochemical.

A further data set relates to CYP3A4. Nature of the data set: Paclitaxel metabolism in primary human hepatocytes (LC/MS/MS). The class given is in vitro ADME. Particulars: 10 µM SPA70, 1 µM PTX, 24 or 48 h. The procedure: Calibration and quality-control samples were prepared.
In a further data set the target is T3, hPXR with TIF2 (Homo sapiens, UniProt O75469).
T3 construct: expressed in transfected cells; host or cells: LS180
T3 sequence (Q15596 whole entry partner, one chain of several): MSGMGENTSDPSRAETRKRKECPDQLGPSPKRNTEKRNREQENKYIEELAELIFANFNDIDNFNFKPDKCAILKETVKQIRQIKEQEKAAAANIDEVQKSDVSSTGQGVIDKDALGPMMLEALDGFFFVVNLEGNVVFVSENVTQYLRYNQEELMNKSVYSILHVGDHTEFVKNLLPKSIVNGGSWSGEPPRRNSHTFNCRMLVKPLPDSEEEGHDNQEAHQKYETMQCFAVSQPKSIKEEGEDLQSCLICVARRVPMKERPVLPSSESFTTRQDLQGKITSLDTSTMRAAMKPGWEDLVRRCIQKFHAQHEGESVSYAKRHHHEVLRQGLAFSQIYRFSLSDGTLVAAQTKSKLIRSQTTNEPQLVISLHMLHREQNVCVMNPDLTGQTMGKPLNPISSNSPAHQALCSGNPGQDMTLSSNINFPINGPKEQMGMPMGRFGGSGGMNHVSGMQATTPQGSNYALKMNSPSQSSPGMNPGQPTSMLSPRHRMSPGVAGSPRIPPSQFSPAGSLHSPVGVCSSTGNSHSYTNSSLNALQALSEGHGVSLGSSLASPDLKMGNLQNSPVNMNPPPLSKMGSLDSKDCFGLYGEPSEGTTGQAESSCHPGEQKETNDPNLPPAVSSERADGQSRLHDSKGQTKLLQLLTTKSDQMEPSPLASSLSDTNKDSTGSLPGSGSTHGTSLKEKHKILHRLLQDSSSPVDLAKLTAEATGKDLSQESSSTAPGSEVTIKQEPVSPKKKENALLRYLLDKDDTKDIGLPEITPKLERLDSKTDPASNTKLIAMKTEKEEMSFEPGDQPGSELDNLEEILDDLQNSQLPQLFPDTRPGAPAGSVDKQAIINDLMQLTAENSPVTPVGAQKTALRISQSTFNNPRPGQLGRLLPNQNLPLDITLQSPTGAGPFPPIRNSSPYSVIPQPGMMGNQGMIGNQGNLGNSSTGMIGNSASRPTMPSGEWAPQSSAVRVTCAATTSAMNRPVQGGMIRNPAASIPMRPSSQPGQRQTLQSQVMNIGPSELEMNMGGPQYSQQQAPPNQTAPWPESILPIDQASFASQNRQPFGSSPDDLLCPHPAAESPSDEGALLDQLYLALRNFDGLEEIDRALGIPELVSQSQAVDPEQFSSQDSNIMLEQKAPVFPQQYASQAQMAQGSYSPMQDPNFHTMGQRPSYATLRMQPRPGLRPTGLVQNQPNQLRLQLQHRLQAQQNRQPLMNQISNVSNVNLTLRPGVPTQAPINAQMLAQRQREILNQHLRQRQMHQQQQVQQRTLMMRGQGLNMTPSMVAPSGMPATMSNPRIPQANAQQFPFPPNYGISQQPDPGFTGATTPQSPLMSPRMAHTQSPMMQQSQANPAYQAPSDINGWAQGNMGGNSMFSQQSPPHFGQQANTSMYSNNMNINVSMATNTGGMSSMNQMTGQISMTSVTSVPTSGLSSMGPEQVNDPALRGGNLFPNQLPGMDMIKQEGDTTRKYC
Nature of the data set: Mammalian two-hybrid assay. The note with it: LS180 cells; SPA70 10 µM, SJB7 4 µM. Type of data set: cell-based. From the text: (§2) The mammalian two-hybrid assay method has been described previously. Briefly, the CheckMate mammalian two-hybrid system (Promega) was used to evaluate the association between hPXR and its co-regulators. LS180 cells were co-transfected with an hPXR plasmid (pACT-hPXR, pACT-hPXRM429A or pACT-hPXRF429A), a coregulator plasmid (pBIND-SRC-1, pBIND-TIF2, pBIND-SMRTτ [amino acids 2077–2471], or pBIND-mNCoR [amino acids 1958–2401]), and a GAL4 firefly luciferase reporter plasmid (pG5-luc). The Renilla luciferase is constitutively expressed from the pBIND vector, and served as an internal transfection control. The activity of the firefly and Renilla luciferase was measured by using the Dual-Glo Luciferase Assay (Promega), and the relative luciferase activity of pG5-luc was determined by normalizing the activity of firefly luciferase to that of Renilla luciferase.

The next data set concerns the target T4, hPXR with SRC-1 (Homo sapiens, UniProt O75469).
T4 construct: expressed in transfected cells; host or cells: LS180
Nature of the data set: Mammalian two-hybrid assay. The class given is cell-based. The note with it: LS180 cells; SPA70 10 µM, SJB7 4 µM.
Description: as §2

T4 sequence (Q15788 whole entry partner, one chain of several): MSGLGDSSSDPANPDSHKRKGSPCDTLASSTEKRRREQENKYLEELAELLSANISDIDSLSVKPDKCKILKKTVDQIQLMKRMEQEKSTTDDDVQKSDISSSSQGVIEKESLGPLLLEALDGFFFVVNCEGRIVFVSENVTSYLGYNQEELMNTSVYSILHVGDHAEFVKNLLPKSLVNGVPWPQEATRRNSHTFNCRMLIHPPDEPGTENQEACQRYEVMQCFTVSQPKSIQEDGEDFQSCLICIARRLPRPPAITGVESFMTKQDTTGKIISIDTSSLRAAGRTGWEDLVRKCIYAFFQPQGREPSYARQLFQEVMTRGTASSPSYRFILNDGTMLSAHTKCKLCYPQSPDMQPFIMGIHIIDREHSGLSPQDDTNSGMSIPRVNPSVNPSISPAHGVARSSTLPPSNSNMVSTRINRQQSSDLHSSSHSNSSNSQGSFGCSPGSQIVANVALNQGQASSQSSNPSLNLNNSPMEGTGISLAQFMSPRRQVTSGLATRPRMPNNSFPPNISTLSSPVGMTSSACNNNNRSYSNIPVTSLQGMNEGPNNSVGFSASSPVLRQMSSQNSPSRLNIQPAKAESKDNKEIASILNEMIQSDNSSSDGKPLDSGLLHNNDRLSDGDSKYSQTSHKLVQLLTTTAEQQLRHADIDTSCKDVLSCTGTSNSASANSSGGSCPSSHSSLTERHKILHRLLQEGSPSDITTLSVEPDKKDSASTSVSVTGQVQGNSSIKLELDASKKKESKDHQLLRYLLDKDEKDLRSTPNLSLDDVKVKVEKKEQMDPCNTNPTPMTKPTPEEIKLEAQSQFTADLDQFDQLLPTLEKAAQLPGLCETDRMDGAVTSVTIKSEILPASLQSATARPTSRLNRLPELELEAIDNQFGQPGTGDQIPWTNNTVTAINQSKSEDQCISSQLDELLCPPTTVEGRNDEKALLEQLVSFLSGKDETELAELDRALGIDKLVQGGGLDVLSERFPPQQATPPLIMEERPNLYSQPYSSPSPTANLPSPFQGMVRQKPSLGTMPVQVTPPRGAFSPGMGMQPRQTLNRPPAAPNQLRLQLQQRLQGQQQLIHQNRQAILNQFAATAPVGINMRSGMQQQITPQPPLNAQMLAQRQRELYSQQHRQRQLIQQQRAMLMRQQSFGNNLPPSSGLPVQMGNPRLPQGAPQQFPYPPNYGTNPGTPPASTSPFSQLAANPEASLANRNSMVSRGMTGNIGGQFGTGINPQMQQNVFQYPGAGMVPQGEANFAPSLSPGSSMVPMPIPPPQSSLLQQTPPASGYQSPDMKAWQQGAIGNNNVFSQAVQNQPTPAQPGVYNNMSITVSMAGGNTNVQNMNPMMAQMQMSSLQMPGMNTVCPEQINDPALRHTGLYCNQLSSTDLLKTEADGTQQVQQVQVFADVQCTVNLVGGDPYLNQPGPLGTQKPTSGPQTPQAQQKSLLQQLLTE
T2 sequence (O75376 2256-2278 partner limits assumed, one chain of several): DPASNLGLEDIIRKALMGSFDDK

Regarding `COc1ccc(OC)c(-n2nnc(S(=O)(=O)c3ccc(C(C)(C)C)cc3)c2C)c1` [SPA70], the “Effect on rifampicin induction of MDR1” value in the data set with MDR1 in LS180 cells and in the data set on MDR1 in LS174T cells was “able to block rifampicin induction of MDR1” in each case. Also, the “Effect on rifampicin-induced hPXR activation” value on hPXR is “completely blocked the activity of rifampicin”. In addition, on hPXR–NCoR, the “Effect on hPXR–NCoR interactions” value is reported as “enhanced the hPXR–NCoR interactions”. Besides, the “Effect on metabolism of paclitaxel to 3′-p-hydroxypaclitaxel or 6α-hydroxypaclitaxel” value in the data set on CYP3A4 is “substantially blocked”. The “Increase of association of hPXR with TIF2” value at hPXR with TIF2 is recorded as “did not affect”. For the same compound, at hPXR with SRC-1, the “Increase of association of hPXR with SRC-1” value is reported as “did not affect”.
